Measured values taken from US9469627B2, “Phenyloxadiazole derivatives as PGDS inhibitors” (Sanofi, priority 2009, dated 2016).

How the values were obtained:
[1] = Solid solubility (solidsol); type: physicochemical
human h-PGDS = human h-PGDS (Homo sapiens (Human), UniProt O60760); assay: Enzyme Immunoassay (EIA) method for inhibition of hematopoietic PGD2 synthase; type: biochemical; conditions: PGD2 formed from PGH2, measured by EIA; read-out: hPGDS EIA IC50
From the text: The compounds of the present invention can be tested for enzymatic inhibiting activity against PGD2 Synthase according to either one of the following assays.
Assay 2: Enzyme Immunoassay (EIA) Method
• a. Preparation of 0.1M K2HPO4/KH2PO4 buffer (pH 7.4) • Prepare 0.1 M KH2PO4 from 1M KH2PO4 (Sigma, Cat# P-8709) • Prepare 0.1 M K2HPO4 from powder of K2HPO4 (Fisher, BP363-500) • Mix 0.1 M K2HPO4 with 0.1 M KH2PO4 to adjust pH to 7.4. • b. Preparation of 0.5% γ-globulin • Add 0.1 g of γ-globulin (Sigma, Cat# G-5009) to 20 mL 0.1 M K2HPO4/KH2PO4 buffer (pH 7.4) and make 1-mL/vial aliquots and store in −80° C. • c. Preparation of 100 mM GSH • Add 307 mg of GSH (Sigma, Cat# G-6529) to 10 mL 0.1 M K2HPO4/KH2PO4 buffer (pH 7.4) and store at −80° C. • d. Preparation of Reaction buffer: • 198 mL of 0.1M K2HPO4/KH2PO4 buffer (pH 7.4) • 2 mM GSH—Prepared from 100 mM GSH • 0.4 g Glycerol • 2 mL of 0.5% γ-globulin • Add 0.4 g of glycerol and 2 mL of 0.5% γ-globulin to 198 mL of 0.1 M K2HPO4/KH2PO4 • buffer (pH7.4). • Add 0.4 mL of 100 mM GSH to 19.6 mL reaction buffer before the assay (enough for two 96-well plates). • e. Preparation of FeCl2/citric acid stopping solution: (8 mg/mL FeCl2, 0.1 M citric acid) • Add 40 mg fresh FeCl2 (IGN, Cat#158046) to 5 mL 0.1 M citric acid (Sigma, Cat# C0759). • f. Preparation of MOX reagent: • 10% EtOH—Add 1 mL of EtOH to 9 mL of ultra pure H2O • Dissolve 0.1 g of methoxylamine (Cayman, Cat#400036/) in 10% EtOH (10 mL). • Add 0.82 g of sodium acetate (Cayman, Cat#400037) to MOX solution and dissolve. II. Materials and Method • Dimethylsulfoxide (DMSO; Sigma; Cat# D2650) • Prostaglandin D2-MOX express EIA kit (Caymen Chemical, Catalog No. 500151)
Before the assay, cool down 10 mL of acetone in polypropylene tubes and empty 96 well plates in ice. All the procedures except compound dilution are performed on ice.
• 1. Dilute compound in DMSO
• 2. […] Total PGD2 levels (pg/mL) were determined in the samples by EIA kits (Cayman Chemical, Catalog No. 500151) • Calculate amount of PGD2 as below • Calculated % Positive control according to the equation below; […]

Chain of human h-PGDS (O60760 whole entry): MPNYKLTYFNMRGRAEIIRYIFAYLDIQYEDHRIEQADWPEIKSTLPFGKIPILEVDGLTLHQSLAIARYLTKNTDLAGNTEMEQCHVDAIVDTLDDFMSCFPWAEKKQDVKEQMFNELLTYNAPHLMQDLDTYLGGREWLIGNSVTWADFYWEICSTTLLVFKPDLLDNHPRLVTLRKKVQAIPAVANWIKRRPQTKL

solidsol [1]	IC50 (human h-PGDS)	SMILES
135.9 µM	0.012 µM	CC(C)(O)c1nc(-c2cccc(CNC(=O)c3cnc(-c4ccccn4)nc3)c2)no1 [Example 1, 2-Pyridin-2-yl-pyrimidine-5-carboxylic acid 3-[5-(1-hydroxy-1-methyl-ethyl)-1,2,4-oxadiazol-3-yl]-benzylamide]
854.9 µM	0.011 µM	C[C@H](NC(=O)c1cnc(-c2ccccn2)nc1)c1cccc(-c2noc(C(C)(C)O)n2)c1 [Example 2, 2-Pyridin-2-yl-pyrimidine-5-carboxylic acid ((S)-1-{3-[5-(1-hydroxy-1-methyl-ethyl)-1,2,4-oxadiazol-3-yl]-phenyl}-ethyl)-amide]
29.4 µM	0.026 µM	C[C@@H](NC(=O)c1cnc(-c2ccccn2)nc1)c1cccc(-c2noc(C(C)(C)O)n2)c1 [Example 3, 2-Pyridin-2-yl-pyrimidine-5-carboxylic acid ((R)-1-{3-[5-(1-hydroxy-1-methyl-ethyl)-1,2,4-oxadiazol-3-yl]-phenyl}-ethyl)-amide]
